{
  "source": "patent US20030153512A1",
  "about": "(priority 2000, published 2003)",
  "key": {"[1]": {"tested_on": "granulocytes (PMN) from human blood", "assay": "Inhibition of the TPA-stimulated \"oxygen burst\" of granulocytes (chemiluminescence)", "type": "cell-based", "settings": "100,000 granulocytes, TPA 100 nM, luminol and/or lucigenin, CL integral over one hour", "procedure": "These studies were carried out by means of the inhibition of the “oxygen burst” of granulocytes (PMN) from human blood according to Hergenhahn et al. (1991) J. Cancer Res. Clin. Oncol. 117, 385-395, and Bouvier, Hergenhahn et al. (1993) Carcinogenesis 14, 1573-8. The granulocyte fraction from heparinized blood is enriched by agglutination of the erythrocytes with 2.5% dextran in PBS (30 min. at room temperature), freed from residual erythrocytes by lysis and used after washing with PBS in the test. In a total volume of 1 ml, 100,000 granulocytes each are admixed with luminol and/or lucigenin and heated to 37° C. in the chemiluminescence (CL) measuring device Biolumat LB 953 (EG&G Berthold, Wildbad); the cells are then stimulated with TPA at a final concentration of 100 nM. The CL curves are tracked for one hour; the integral underneath the curve is used as a standard for chemiluminescence.\nWhen inhibitory substances are used, a concentration-dependent inhibitory effect results which manifests itself as a late rise, reduced amplitude of the maximum and partially as an early drop of the peak."}, "[2]": {"assay": "Water solubility of saturated solutions in argon-saturated water, content by HPLC", "type": "physicochemical", "settings": "saturated solution at room temperature in argon-saturated water, HPLC UV 420 nm", "procedure": "HPLC conditions: column lichrospher-100-RP18-5 μ, 125×4 mm Running agent/gradient/flow Acetonitrile/acetic acid 0.2 and/or 2%, 1 ml/min Detection: UV 420 nm\nThe relevant straight calibration line was respectively determined with the individual compounds. […] The content of 20 μl each of the saturated solutions was determined by means of HPLC."}, "[3]": {"tested_on": "Raji cells", "assay": "Uptake in Raji cells by fluorescence microscopy", "type": "cell-based", "procedure": "These studies were carried out by means of fluorescence microscopy, since curcumin and its two derivatives show fluorescence. […] Aliquots of the cells in medium were placed by pipetting onto poly-L-lysin-coated slides (to adhere the cells); the cells were covered with a cover glass after 30 minutes and stimulated by an appropriate filter using U.V. light."}, "[4]": {"tested_on": "Epstein-Barr virus", "assay": "Inhibition of EBV induction (reactivation) in Raji-DR-LUC cells, luciferase activity", "type": "cell-based", "settings": "50,000 Raji-DR cells, 10 nM TPA, 72 hours", "procedure": "The current studies were carried out with Raji-DR-LUC cells.\nFor this purpose, 50,000 Raji-DR cells were treated with 10 nM TPA minus/plus inhibitor (various concentrations) in a volume of 100 μl in a CO2 incubator for 72 hours. Following washing with PBS, the cells are lyzed; the luciferase activity is determined in luciferase buffer (20 mM tricins, 8 mM MgSO4, 0.1 mM EDTA, 30 mM DTE, pH 7.8) with luciferin/CoA ATP as a substrate in an always equal amount of cell lyzate. The induced luciferase activity per μg protein is determined in comparison with a calibration curve having an authentic luciferase. Inhibiting agents of EBV induction result in an induction of luciferase reduced as compared with the TPA control."}, "[5]": {"tested_on": "cell cultures", "settings": "described in the literature; cited from earlier work"}, "[6]": {"settings": "Raji cells, 3 hours, 15 μM, image analysis"}},
  "data": [
    {"molecule": "8,8′-bis-(B-D-glucopyranosyl)-curcumin [Curcumin diglucoside]", "values": [
      {"measurement": "antioxidative effect, rank order in series", "setting": "[1]", "value": "curcumin >>curcumin monoglucoside curcumin diglucoside"},
      {"measurement": "water solubility", "setting": "[2]", "value": "> 10700", "unit": "µg/mL"},
      {"measurement": "fluorescence of cells (cell-associated compound)", "setting": "[3]; [6]", "value": "just visible"},
      {"measurement": "EBV inhibitory effect, rank order in series", "setting": "[4]", "value": "curcumin>curcumin monoglucoside>curcumin diglucoside"}
    ]},
    {"molecule": "8-(β-D-glucopyranosyl)curcumin [Curcumin monoglucoside]", "values": [
      {"measurement": "antioxidative effect, rank order in series", "setting": "[1]", "value": "curcumin >>curcumin monoglucoside curcumin diglucoside"},
      {"measurement": "water solubility", "setting": "[2]", "value": "13.2 ± 0.9", "unit": "µg/mL"},
      {"measurement": "factor by which cell fluorescence was reduced (versus curcumin)", "setting": "[3]; [6]", "value": "10-100"},
      {"measurement": "EBV inhibitory effect, rank order in series", "setting": "[4]", "value": "curcumin>curcumin monoglucoside>curcumin diglucoside"}
    ]},
    {"molecule": "COc1cc(C=CC(=O)CC(=O)C=Cc2ccc(O)c(OC)c2)ccc1O", "note": "[Curcumin, 1,7-bis(4-hydroxy-3-methoxyphenyl)-1,6-heptadiene-3,5-dione, reference compound]", "values": [
      {"measurement": "concentration in the medium at which chemopreventive effects occurred", "setting": "[5]", "value": "at least 10 μM"},
      {"measurement": "antioxidative effect, rank order in series", "setting": "[1]", "value": "curcumin >>curcumin monoglucoside curcumin diglucoside"},
      {"measurement": "solubility", "setting": "[2]; thermodynamic from solid", "value": 4, "unit": "µg/mL"},
      {"measurement": "fluorescence of cells (cell-associated compound)", "setting": "[3]; [6]", "value": "very bright fluorescence"},
      {"measurement": "time of maximum uptake in Raji cells", "setting": "[3]; preliminary tests", "value": "2 to 3", "unit": "h"},
      {"measurement": "EBV inhibitory effect, rank order in series", "setting": "[4]", "value": "curcumin>curcumin monoglucoside>curcumin diglucoside"}
    ]}
  ]
}
